Results from ChEMBL document CHEMBL1201862, “PubChem BioAssay data set” (2004).
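Tested at 5 concentrations; 48 h exposure; 96-well plates; endpoints linearly interpolated, else capped at highest concentration. GI50: concentration for 50% inhibition of growth.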 Active and inactive are the calls of the source. Rule as the data show it: active = GI50 up to about 1.1 µM and inactive = higher.

Experiments:
Assay in all cases: inhibition of tumour cell growth, NCI panel, 48 h
NCI-H23 = tested on: NCI-H23
OVCAR-8 = tested on: OVCAR-8
NCI-H460 = tested on: NCI-H460
K562 = tested on: K562
OVCAR-4 = tested on: OVCAR-4
A549 = tested on: A549
SF-295 = tested on: SF-295
HCT-116 = tested on: HCT-116
HCT-15 = tested on: HCT-15
CAKI-1 = tested on: CAKI-1
EKVX = tested on: EKVX
T47D = tested on: T47D
HT-29 = tested on: HT-29
NCI-H226 = tested on: NCI-H226
MCF7 = tested on: MCF7
SK-MEL-28 = tested on: SK-MEL-28
SN12C = tested on: SN12C
HL-60 = tested on: HL-60
NCI-H522 = tested on: NCI-H522
BT-549 = tested on: BT-549

Cc1ccc(Cl)c2c1NC(=O)/C2=N\Nc1ccccc1[N+](=O)[O-]
GI50 (NCI-H23): 47.6 µM (inactive) | GI50 (OVCAR-8): 39.7 µM (inactive) | GI50 (NCI-H460): 30.4 µM (inactive) | GI50 (K562): 39.4 µM (inactive) | GI50 (OVCAR-4): 96.6 µM (inactive) | GI50 (A549): 83 µM (inactive) | GI50 (SF-295): 24.1 µM (inactive) | GI50 (HCT-116): 36.3 µM (inactive) | GI50 (HCT-15): 37.8 µM | GI50 (CAKI-1): > 100 µM (inactive) | GI50 (EKVX): 40.2 µM (inactive) | GI50 (T47D): 44.3 µM (inactive) | GI50 (HT-29): 35.8 µM (inactive) | GI50 (NCI-H226): > 100 µM (inactive) | GI50 (MCF7): 36.3 µM (inactive) | GI50 (SK-MEL-28): > 100 µM (inactive) | GI50 (SN12C): > 100 µM (inactive) | GI50 (HL-60): 25.5 µM (inactive)

O=C(CCc1nnc2s/c(=C\c3ccc(Cl)cc3Cl)c(=O)n12)Nc1cc(Cl)c(Cl)cc1Cl
GI50 (NCI-H23): > 10 µM (inactive) | GI50 (OVCAR-8): > 10 µM (inactive) | GI50 (NCI-H460): > 10 µM (inactive) | GI50 (K562): > 10 µM (inactive) | GI50 (OVCAR-4): > 10 µM (inactive) | GI50 (NCI-H522): 2.31 µM (inactive) | GI50 (A549): > 10 µM (inactive) | GI50 (SF-295): > 10 µM (inactive) | GI50 (HCT-116): > 10 µM (inactive) | GI50 (HCT-15): > 10 µM | GI50 (CAKI-1): > 10 µM (inactive) | GI50 (EKVX): > 10 µM (inactive) | GI50 (HT-29): > 10 µM (inactive) | GI50 (NCI-H226): > 10 µM (inactive) | GI50 (SK-MEL-28): > 10 µM (inactive) | GI50 (SN12C): > 10 µM (inactive) | GI50 (HL-60): > 100 µM (inactive)

O=C1Nc2ccccc2Cn2c1cc1oc(-c3ccccc3)cc12
GI50 (NCI-H23): 86.9 µM (inactive) | GI50 (OVCAR-8): 31 µM (inactive) | GI50 (NCI-H460): 61.7 µM (inactive) | GI50 (K562): 50.2 µM (inactive) | GI50 (OVCAR-4): 28.8 µM (inactive) | GI50 (NCI-H522): 43.2 µM (inactive) | GI50 (A549): 32.4 µM (inactive) | GI50 (SF-295): 17.7 µM (inactive) | GI50 (HCT-15): 88.9 µM | GI50 (CAKI-1): 30 µM (inactive) | GI50 (EKVX): 33.7 µM (inactive) | GI50 (T47D): 23.8 µM (inactive) | GI50 (HT-29): > 100 µM (inactive) | GI50 (MCF7): 10.8 µM (inactive) | GI50 (SK-MEL-28): 63.5 µM (inactive) | GI50 (SN12C): 27.4 µM (inactive) | GI50 (HL-60): > 100 µM (inactive)

Cn1c(=O)sc2cc(C(=S)N3CCCCC3)ccc21
GI50 (NCI-H23): > 100 µM (inactive) | GI50 (OVCAR-8): 25.4 µM (inactive) | GI50 (NCI-H460): > 100 µM (inactive) | GI50 (K562): 47.9 µM (inactive) | GI50 (SF-295): 92.7 µM (inactive) | GI50 (BT-549): 66.4 µM (inactive) | GI50 (HCT-116): 89.7 µM (inactive) | GI50 (HCT-15): 93.8 µM | GI50 (CAKI-1): 46.9 µM (inactive) | GI50 (EKVX): 16.1 µM (inactive) | GI50 (HT-29): > 100 µM (inactive) | GI50 (NCI-H226): 18.6 µM (inactive) | GI50 (MCF7): > 100 µM (inactive) | GI50 (SK-MEL-28): 56.4 µM (inactive) | GI50 (SN12C): > 100 µM (inactive) | GI50 (HL-60): 17.7 µM (inactive)

Cc1c(CC/C(=N\Nc2ccc([N+](=O)[O-])cc2[N+](=O)[O-])c2ccccc2)c2ccccc2n1C
GI50 (NCI-H23): > 100 µM (inactive) | GI50 (OVCAR-8): > 100 µM (inactive) | GI50 (NCI-H460): > 100 µM (inactive) | GI50 (K562): 27.4 µM (inactive) | GI50 (OVCAR-4): > 100 µM (inactive) | GI50 (NCI-H522): > 100 µM (inactive) | GI50 (A549): > 100 µM (inactive) | GI50 (SF-295): > 100 µM (inactive) | GI50 (HCT-116): > 100 µM (inactive) | GI50 (HCT-15): > 100 µM | GI50 (CAKI-1): > 100 µM (inactive) | GI50 (EKVX): > 100 µM (inactive) | GI50 (HT-29): > 100 µM (inactive) | GI50 (NCI-H226): > 100 µM (inactive) | GI50 (SK-MEL-28): > 100 µM (inactive) | GI50 (SN12C): > 100 µM (inactive) | GI50 (HL-60): > 50 µM (inactive)

O=C(NCCN1CCCCC1)c1cccc(I)c1
GI50 (NCI-H23): > 100 µM (inactive) | GI50 (OVCAR-8): > 100 µM (inactive) | GI50 (NCI-H460): > 100 µM (inactive) | GI50 (K562): > 100 µM (inactive) | GI50 (OVCAR-4): > 100 µM (inactive) | GI50 (A549): > 100 µM (inactive) | GI50 (BT-549): > 100 µM (inactive) | GI50 (HCT-15): > 100 µM | GI50 (CAKI-1): > 100 µM (inactive) | GI50 (EKVX): > 100 µM (inactive) | GI50 (HT-29): 49.7 µM (inactive) | GI50 (NCI-H226): > 100 µM (inactive) | GI50 (MCF7): > 100 µM (inactive) | GI50 (SK-MEL-28): > 100 µM (inactive) | GI50 (SN12C): > 100 µM (inactive) | GI50 (HL-60): > 100 µM (inactive)

CC(=O)Nc1ccc(C2[C@H]3C(=O)N(c4ccc(Cc5ccc(N6C(=O)[C@@H]7ON(c8ccccc8)C(c8ccc(NC(C)=O)cc8)[C@@H]7C6=O)cc5)cc4)C(=O)[C@H]3ON2c2ccccc2)cc1 (stereo not given in full)
GI50 (NCI-H23): > 100 µM (inactive) | GI50 (OVCAR-8): > 100 µM (inactive) | GI50 (NCI-H460): > 100 µM (inactive) | GI50 (K562): > 100 µM (inactive) | GI50 (OVCAR-4): > 100 µM (inactive) | GI50 (NCI-H522): > 100 µM (inactive) | GI50 (A549): > 100 µM (inactive) | GI50 (SF-295): > 100 µM (inactive) | GI50 (HCT-116): > 100 µM (inactive) | GI50 (HCT-15): > 100 µM | GI50 (CAKI-1): 98.2 µM (inactive) | GI50 (EKVX): > 100 µM (inactive) | GI50 (HT-29): > 100 µM (inactive) | GI50 (NCI-H226): > 100 µM (inactive) | GI50 (SK-MEL-28): > 100 µM (inactive) | GI50 (SN12C): > 100 µM (inactive) | GI50 (HL-60): > 100 µM (inactive)

COc1ccc(NC(=O)c2oc3cc(O)ccc3c(=O)c2C)c([N+](=O)[O-])c1
GI50 (NCI-H23): > 100 µM (inactive) | GI50 (OVCAR-8): > 100 µM (inactive) | GI50 (NCI-H460): > 100 µM (inactive) | GI50 (K562): > 100 µM (inactive) | GI50 (OVCAR-4): > 100 µM (inactive) | GI50 (NCI-H522): > 100 µM (inactive) | GI50 (A549): > 100 µM (inactive) | GI50 (SF-295): > 100 µM (inactive) | GI50 (HCT-116): > 100 µM (inactive) | GI50 (HCT-15): > 100 µM | GI50 (CAKI-1): > 100 µM (inactive) | GI50 (EKVX): > 100 µM (inactive) | GI50 (HT-29): > 100 µM (inactive) | GI50 (NCI-H226): > 100 µM (inactive) | GI50 (SK-MEL-28): > 100 µM (inactive) | GI50 (SN12C): > 100 µM (inactive) | GI50 (HL-60): > 100 µM (inactive)
